Assay results as given in the kinase profiling compilation of Christmann-Franck et al. (2016).
Values joined by “and” are separate entries in the source; they are usually repeats but may differ in a detail not shown here. Equal values may be shown once.

Experiments:
Experiment in all cases: radiometric filter-binding kinase assay, Kinase HotSpot
Conditions in all cases: compound 0.5 µM; ATP 10 µM
CDK2 CCNA2 (human) = CDK2 CCNA2 (human) (UniProt P24941+P20248)
FRK (human) = FRK (human) (UniProt P42685)
PHKG2 (human) = PHKG2 (human) (UniProt P15735)
[1] = system: MKNK1 (human), Q9BUB5 [T385D; 165-205 del]
EPHA7 (human) = EPHA7 (human) (UniProt Q15375)
BMX (human) = BMX (human) (UniProt P51813)
AURKC (human) = AURKC (human) (UniProt Q9UQB9)
PRKACA (human) = PRKACA (human) (UniProt P17612)
PAK1 (human) = PAK1 (human) (UniProt Q13153)
NTRK2 (human) = NTRK2 (human) (UniProt Q16620)
RIPK2 (human) = RIPK2 (human) (UniProt O43353)
MATK (human) = MATK (human) (UniProt P42679)
PBK (human) = PBK (human) (UniProt Q96KB5)
CAMK4 (human) = CAMK4 (human) (UniProt Q16566)
PRKCB2 (human) = PRKCB2 (human) (UniProt P05771)
PRKG1 (human) = PRKG1 (human) (UniProt Q13976)
FGFR2 (human) = FGFR2 (human) (UniProt P21802)
PRKCA (human) = PRKCA (human) (UniProt P17252)
SRMS (human) = SRMS (human) (UniProt Q9H3Y6)
PASK (human) = PASK (human) (UniProt Q96RG2)
DAPK1 (human) = DAPK1 (human) (UniProt P53355)
PRKD2 (human) = PRKD2 (human) (UniProt Q9BZL6)
SRPK2 (human) = SRPK2 (human) (UniProt P78362)
CSNK2A2 (human) = CSNK2A2 (human) (UniProt P19784)
HIPK2 (human) = HIPK2 (human) (UniProt Q9H2X6)
SGK3 (human) = SGK3 (human) (UniProt Q96BR1)
CAMK2B (human) = CAMK2B (human) (UniProt Q13554)
MKNK2 (human) = MKNK2 (human) (UniProt Q9HBH9)
NEK11 (human) = NEK11 (human) (UniProt Q8NG66)
CSF1R (human) = CSF1R (human) (UniProt P07333)
MST4 (human) = MST4 (human) (UniProt Q9P289)
DDR2 (human) = DDR2 (human) (UniProt Q16832)
EPHB3 (human) = EPHB3 (human) (UniProt P54753)
ABL2 (human) = ABL2 (human) (UniProt P42684)
PLK1 (human) = PLK1 (human) (UniProt P53350)
ITK (human) = ITK (human) (UniProt Q08881)
MAP4K2 (human) = MAP4K2 (human) (UniProt Q12851)
INSRR (human) = INSRR (human) (UniProt P14616)
YES1 (human) = YES1 (human) (UniProt P07947)
CDK9 CCNT1 (human) = CDK9 CCNT1 (human) (UniProt P50750+O60563)
RPS6KA1 KD1 KD2 (human) = RPS6KA1 KD1 KD2 (human) (UniProt Q15418)

Sequence of ITK (human) (Q08881 whole entry, looked up): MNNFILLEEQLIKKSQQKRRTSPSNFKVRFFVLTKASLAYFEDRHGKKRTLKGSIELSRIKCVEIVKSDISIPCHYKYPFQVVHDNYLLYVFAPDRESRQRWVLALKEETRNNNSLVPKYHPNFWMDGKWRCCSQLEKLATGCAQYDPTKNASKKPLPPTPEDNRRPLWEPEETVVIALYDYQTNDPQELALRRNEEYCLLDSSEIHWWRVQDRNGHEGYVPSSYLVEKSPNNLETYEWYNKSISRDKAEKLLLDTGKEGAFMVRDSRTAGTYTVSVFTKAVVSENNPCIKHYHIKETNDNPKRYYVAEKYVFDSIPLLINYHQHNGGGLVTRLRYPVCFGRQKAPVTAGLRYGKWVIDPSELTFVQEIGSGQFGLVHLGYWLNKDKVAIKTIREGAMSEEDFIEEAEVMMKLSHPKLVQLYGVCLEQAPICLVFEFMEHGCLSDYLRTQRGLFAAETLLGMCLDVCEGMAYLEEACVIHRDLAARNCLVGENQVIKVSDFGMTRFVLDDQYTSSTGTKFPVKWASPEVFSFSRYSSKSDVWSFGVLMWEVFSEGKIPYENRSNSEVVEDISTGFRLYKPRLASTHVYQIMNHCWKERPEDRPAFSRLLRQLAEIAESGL
Sequence of ABL2 (human) (P42684 whole entry, looked up): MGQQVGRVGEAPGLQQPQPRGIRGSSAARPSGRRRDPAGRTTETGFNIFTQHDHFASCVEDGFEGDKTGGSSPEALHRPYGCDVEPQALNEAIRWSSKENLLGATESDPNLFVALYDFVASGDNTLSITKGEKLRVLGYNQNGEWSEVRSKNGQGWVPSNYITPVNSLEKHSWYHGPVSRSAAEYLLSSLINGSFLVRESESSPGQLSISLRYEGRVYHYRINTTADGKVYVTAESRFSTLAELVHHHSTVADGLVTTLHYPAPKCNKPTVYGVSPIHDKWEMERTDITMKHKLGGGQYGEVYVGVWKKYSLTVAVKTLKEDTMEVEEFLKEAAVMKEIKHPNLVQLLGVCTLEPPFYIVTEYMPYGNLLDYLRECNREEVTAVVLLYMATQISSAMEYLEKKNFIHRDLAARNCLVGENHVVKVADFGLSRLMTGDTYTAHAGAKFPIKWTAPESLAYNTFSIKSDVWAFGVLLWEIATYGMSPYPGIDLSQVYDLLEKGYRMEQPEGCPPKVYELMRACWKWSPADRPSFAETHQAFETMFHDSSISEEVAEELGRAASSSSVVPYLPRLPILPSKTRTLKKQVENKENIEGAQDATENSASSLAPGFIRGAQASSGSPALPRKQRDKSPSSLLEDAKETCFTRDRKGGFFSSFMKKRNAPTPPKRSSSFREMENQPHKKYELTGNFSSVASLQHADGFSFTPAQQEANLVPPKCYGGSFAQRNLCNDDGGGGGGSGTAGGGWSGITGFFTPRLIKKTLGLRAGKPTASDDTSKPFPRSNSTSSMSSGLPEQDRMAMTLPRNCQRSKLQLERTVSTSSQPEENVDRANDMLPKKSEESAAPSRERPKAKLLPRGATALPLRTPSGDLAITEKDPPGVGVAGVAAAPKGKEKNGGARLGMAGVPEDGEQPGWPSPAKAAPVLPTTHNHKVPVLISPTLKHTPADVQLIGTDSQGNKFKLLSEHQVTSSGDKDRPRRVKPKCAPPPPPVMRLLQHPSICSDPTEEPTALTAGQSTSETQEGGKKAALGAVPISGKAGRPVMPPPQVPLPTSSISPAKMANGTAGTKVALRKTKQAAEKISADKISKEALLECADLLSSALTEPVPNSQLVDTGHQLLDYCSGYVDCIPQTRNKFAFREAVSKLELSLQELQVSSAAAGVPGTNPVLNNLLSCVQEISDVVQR
Sequence of PBK (human) (Q96KB5 whole entry, looked up): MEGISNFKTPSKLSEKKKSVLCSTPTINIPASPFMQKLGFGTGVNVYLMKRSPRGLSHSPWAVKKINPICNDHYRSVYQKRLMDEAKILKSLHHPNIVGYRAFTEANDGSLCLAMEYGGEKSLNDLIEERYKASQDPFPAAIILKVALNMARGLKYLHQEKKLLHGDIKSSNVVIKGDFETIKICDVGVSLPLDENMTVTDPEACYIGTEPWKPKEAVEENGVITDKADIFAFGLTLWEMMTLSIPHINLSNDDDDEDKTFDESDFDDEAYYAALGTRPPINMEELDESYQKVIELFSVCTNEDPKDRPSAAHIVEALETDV
Sequence of INSRR (human) (P14616 whole entry, looked up): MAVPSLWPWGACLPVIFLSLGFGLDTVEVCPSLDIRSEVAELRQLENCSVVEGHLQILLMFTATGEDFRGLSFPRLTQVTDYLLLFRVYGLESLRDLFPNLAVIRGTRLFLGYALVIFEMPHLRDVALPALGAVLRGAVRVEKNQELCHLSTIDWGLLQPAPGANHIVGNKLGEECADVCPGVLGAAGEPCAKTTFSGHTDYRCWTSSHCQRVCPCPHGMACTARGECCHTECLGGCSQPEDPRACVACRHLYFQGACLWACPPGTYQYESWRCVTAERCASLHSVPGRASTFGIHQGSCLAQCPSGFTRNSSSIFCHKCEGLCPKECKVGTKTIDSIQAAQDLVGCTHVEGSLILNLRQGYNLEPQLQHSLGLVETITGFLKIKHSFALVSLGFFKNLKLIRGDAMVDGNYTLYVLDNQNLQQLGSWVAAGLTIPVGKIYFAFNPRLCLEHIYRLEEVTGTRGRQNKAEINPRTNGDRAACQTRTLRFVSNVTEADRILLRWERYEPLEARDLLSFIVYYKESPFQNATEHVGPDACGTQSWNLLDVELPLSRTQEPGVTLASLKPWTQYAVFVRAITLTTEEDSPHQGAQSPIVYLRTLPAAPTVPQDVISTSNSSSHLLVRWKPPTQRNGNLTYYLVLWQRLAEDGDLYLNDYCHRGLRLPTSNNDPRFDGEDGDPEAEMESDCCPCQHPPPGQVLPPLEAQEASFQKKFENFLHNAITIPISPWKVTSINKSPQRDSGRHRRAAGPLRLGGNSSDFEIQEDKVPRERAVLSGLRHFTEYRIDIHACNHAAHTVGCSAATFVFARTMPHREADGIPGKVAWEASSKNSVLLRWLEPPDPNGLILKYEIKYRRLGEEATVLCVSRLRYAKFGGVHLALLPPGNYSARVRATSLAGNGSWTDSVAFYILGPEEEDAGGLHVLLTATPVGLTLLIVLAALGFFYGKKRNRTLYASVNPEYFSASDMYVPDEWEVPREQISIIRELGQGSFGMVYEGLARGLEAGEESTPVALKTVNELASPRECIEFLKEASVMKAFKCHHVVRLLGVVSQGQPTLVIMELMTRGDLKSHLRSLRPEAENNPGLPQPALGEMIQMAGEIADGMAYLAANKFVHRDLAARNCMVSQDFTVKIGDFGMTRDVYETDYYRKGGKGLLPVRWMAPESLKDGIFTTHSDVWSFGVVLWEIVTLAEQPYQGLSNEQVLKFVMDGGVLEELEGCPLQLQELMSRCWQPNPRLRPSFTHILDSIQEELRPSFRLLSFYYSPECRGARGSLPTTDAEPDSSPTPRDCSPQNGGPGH
Sequence of PRKG1 (human) (Q13976 whole entry, looked up): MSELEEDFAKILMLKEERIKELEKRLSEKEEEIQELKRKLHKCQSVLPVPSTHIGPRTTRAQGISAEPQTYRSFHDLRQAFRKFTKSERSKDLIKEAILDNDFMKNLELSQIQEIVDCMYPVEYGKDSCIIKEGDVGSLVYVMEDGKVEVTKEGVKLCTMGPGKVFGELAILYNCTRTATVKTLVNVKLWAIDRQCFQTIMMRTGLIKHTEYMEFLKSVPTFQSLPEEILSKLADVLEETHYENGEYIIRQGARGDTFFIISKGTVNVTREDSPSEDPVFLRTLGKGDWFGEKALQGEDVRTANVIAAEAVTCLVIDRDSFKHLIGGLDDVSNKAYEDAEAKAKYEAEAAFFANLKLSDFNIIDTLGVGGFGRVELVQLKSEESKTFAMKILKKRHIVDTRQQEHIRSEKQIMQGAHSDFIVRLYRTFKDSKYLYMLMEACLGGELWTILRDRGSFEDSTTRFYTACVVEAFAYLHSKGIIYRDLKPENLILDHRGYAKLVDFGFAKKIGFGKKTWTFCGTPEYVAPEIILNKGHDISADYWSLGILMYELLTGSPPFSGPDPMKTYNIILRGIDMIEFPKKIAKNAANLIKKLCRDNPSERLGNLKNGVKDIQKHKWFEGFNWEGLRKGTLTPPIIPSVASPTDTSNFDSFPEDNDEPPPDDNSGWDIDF
Sequence of CSF1R (human) (P07333 whole entry, looked up): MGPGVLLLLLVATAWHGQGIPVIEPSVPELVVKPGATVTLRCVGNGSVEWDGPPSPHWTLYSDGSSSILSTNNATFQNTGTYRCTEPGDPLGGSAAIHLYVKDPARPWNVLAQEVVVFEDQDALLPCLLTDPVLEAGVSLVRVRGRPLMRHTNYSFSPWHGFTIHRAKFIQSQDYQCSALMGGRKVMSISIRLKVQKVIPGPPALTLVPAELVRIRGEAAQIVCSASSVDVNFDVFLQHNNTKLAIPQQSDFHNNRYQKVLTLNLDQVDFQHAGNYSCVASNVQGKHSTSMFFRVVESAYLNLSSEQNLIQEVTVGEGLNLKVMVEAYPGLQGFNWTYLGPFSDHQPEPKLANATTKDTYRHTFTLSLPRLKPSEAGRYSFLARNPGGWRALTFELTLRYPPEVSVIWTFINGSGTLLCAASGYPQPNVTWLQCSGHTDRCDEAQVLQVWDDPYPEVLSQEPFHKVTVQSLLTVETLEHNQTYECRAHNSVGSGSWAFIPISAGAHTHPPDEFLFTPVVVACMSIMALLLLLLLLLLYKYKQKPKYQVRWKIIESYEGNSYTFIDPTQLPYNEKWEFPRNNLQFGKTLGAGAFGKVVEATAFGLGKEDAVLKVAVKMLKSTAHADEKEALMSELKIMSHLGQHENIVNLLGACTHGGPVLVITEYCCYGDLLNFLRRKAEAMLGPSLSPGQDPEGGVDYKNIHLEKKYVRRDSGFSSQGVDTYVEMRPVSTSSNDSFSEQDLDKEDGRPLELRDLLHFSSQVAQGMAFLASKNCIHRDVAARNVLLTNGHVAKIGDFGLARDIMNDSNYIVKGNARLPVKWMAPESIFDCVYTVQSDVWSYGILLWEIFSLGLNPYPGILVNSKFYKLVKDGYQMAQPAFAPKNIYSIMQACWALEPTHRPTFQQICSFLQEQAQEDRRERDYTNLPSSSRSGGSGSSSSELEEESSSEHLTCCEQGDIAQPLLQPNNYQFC

CC(C)(C)c1cc(C=C(C#N)C#N)cc(Br)c1O
residual activity (CDK2 CCNA2 (human)): 90.7% | residual activity (FRK (human)): 99.3% | residual activity (PHKG2 (human)): 106% | residual activity [1]: 95.9% | residual activity (EPHA7 (human)): 107% | residual activity (BMX (human)): 113% | residual activity (AURKC (human)): 87.6% | residual activity (PRKACA (human)): 102% | residual activity (PAK1 (human)): 89.9% | residual activity (NTRK2 (human)): 90.9% | residual activity (RIPK2 (human)): 32.8% | residual activity (MATK (human)): 102% | residual activity (PBK (human)): 102% | residual activity (CAMK4 (human)): 94.2% | residual activity (PRKCB2 (human)): 129% | residual activity (PRKG1 (human)): 103% and 107% | residual activity (FGFR2 (human)): 96.4% | residual activity (PRKCA (human)): 81.4% | residual activity (SRMS (human)): 98.4% | residual activity (PASK (human)): 96.7% | residual activity (DAPK1 (human)): 85.9% | residual activity (PRKD2 (human)): 108% | residual activity (SRPK2 (human)): 109% | residual activity (CSNK2A2 (human)): 94.5% | residual activity (HIPK2 (human)): 110% | residual activity (SGK3 (human)): 97.7% | residual activity (CAMK2B (human)): 99.3% | residual activity (MKNK2 (human)): 100% | residual activity (NEK11 (human)): 87% | residual activity (CSF1R (human)): 96.8% | residual activity (MST4 (human)): 95.2% | residual activity (DDR2 (human)): 105% | residual activity (EPHB3 (human)): 107% | residual activity (ABL2 (human)): 57.1% | residual activity (PLK1 (human)): 92.3% | residual activity (ITK (human)): 98.4% | residual activity (MAP4K2 (human)): 113% | residual activity (INSRR (human)): 103% | residual activity (YES1 (human)): 83% | residual activity (CDK9 CCNT1 (human)): 95.4% | residual activity (RPS6KA1 KD1 KD2 (human)): 104%

CO[C@@H]1[C@H](N(C)C(=O)c2ccccc2)C[C@H]2O[C@]1(C)n1c3ccccc3c3c4c(c5c6ccccc6n2c5c31)C(=O)NC4
residual activity (CDK2 CCNA2 (human)): 66.6% | residual activity (FRK (human)): 65.8% | residual activity (PHKG2 (human)): 79.7% | residual activity [1]: 92.7% | residual activity (EPHA7 (human)): 87.2% | residual activity (BMX (human)): 32% | residual activity (AURKC (human)): 12% | residual activity (PRKACA (human)): 34% | residual activity (PAK1 (human)): 35.1% | residual activity (NTRK2 (human)): 12.8% | residual activity (RIPK2 (human)): 82.8% | residual activity (MATK (human)): 113% | residual activity (CAMK4 (human)): 103% | residual activity (PRKG1 (human)): 18.8% and 8.37% | residual activity (SRMS (human)): 97.6% | residual activity (PASK (human)): 90.9% | residual activity (DAPK1 (human)): 84% | residual activity (PRKD2 (human)): 62.9% | residual activity (CSNK2A2 (human)): 87.8% | residual activity (HIPK2 (human)): 106% | residual activity (SGK3 (human)): 93.5% | residual activity (CAMK2B (human)): 57.4% | residual activity (CSF1R (human)): 6.65% | residual activity (MST4 (human)): 23.8% | residual activity (DDR2 (human)): 380% | residual activity (EPHB3 (human)): 90.5% | residual activity (PLK1 (human)): 95.4% | residual activity (ITK (human)): 70.6% | residual activity (MAP4K2 (human)): 5.17% | residual activity (INSRR (human)): 96.2% | residual activity (YES1 (human)): 20.6% | residual activity (CDK9 CCNT1 (human)): 64.2% | residual activity (RPS6KA1 KD1 KD2 (human)): 0.432%

O=C(c1cc2cc(O)ccc2[nH]1)c1cc2cc(O)ccc2[nH]1
residual activity (CDK2 CCNA2 (human)): 61.5% | residual activity (FRK (human)): 86.1% | residual activity (PHKG2 (human)): 105% | residual activity [1]: 83.6% | residual activity (EPHA7 (human)): 101% | residual activity (BMX (human)): 80.6% | residual activity (AURKC (human)): 83.2% | residual activity (PRKACA (human)): 107% | residual activity (PAK1 (human)): 94.6% | residual activity (NTRK2 (human)): 37% | residual activity (RIPK2 (human)): 37.8% | residual activity (MATK (human)): 93.3% | residual activity (PBK (human)): 100% | residual activity (CAMK4 (human)): 96.5% | residual activity (PRKCB2 (human)): 98.9% | residual activity (PRKG1 (human)): 84.3% and 90% | residual activity (FGFR2 (human)): 98.5% | residual activity (PRKCA (human)): 84.1% | residual activity (SRMS (human)): 93.7% | residual activity (PASK (human)): 78.7% | residual activity (DAPK1 (human)): 101% | residual activity (PRKD2 (human)): 71.7% | residual activity (SRPK2 (human)): 97.1% | residual activity (CSNK2A2 (human)): 78.8% | residual activity (HIPK2 (human)): 102% | residual activity (SGK3 (human)): 113% | residual activity (CAMK2B (human)): 93.4% | residual activity (MKNK2 (human)): 46.8% | residual activity (NEK11 (human)): 96.7% | residual activity (CSF1R (human)): 97.7% | residual activity (MST4 (human)): 101% | residual activity (DDR2 (human)): 95.7% | residual activity (EPHB3 (human)): 92.3% | residual activity (ABL2 (human)): 27.2% | residual activity (PLK1 (human)): 101% | residual activity (ITK (human)): 77.7% | residual activity (MAP4K2 (human)): 67.1% | residual activity (INSRR (human)): 97.1% | residual activity (YES1 (human)): 18.8% | residual activity (CDK9 CCNT1 (human)): 76.6% | residual activity (RPS6KA1 KD1 KD2 (human)): 30.1%

O=C1c2ccccc2-c2nc3nnnn3nc21
residual activity (CDK2 CCNA2 (human)): 70.3% | residual activity (FRK (human)): 33.9% | residual activity (PHKG2 (human)): 96.1% | residual activity [1]: 79.3% | residual activity (EPHA7 (human)): 81.9% | residual activity (BMX (human)): 79% | residual activity (AURKC (human)): 95.4% | residual activity (PRKACA (human)): 76.6% | residual activity (PAK1 (human)): 96.1% | residual activity (NTRK2 (human)): 29.4% | residual activity (RIPK2 (human)): 101% | residual activity (MATK (human)): 99.7% | residual activity (PBK (human)): 64.5% | residual activity (CAMK4 (human)): 85.4% | residual activity (PRKCB2 (human)): 29.3% | residual activity (PRKG1 (human)): 109% and 133% | residual activity (FGFR2 (human)): 59.4% | residual activity (PRKCA (human)): 91.4% | residual activity (SRMS (human)): 6.33% | residual activity (PASK (human)): 73.4% | residual activity (DAPK1 (human)): 92.2% | residual activity (PRKD2 (human)): 91.7% | residual activity (SRPK2 (human)): 95.8% | residual activity (CSNK2A2 (human)): 76.2% | residual activity (HIPK2 (human)): 107% | residual activity (SGK3 (human)): 90.4% | residual activity (CAMK2B (human)): 85.1% | residual activity (MKNK2 (human)): 78.3% | residual activity (NEK11 (human)): 88% | residual activity (CSF1R (human)): 11.6% | residual activity (MST4 (human)): 91.8% | residual activity (DDR2 (human)): 58.7% | residual activity (EPHB3 (human)): 90.2% | residual activity (ABL2 (human)): 89.7% | residual activity (PLK1 (human)): 28.6% | residual activity (ITK (human)): 71.5% | residual activity (MAP4K2 (human)): 79.4% | residual activity (INSRR (human)): 86.7% | residual activity (YES1 (human)): 89.1% | residual activity (CDK9 CCNT1 (human)): 97% | residual activity (RPS6KA1 KD1 KD2 (human)): 53.1%

CN(C)S(=O)(=O)c1ccc2c(c1)/C(=C/c1cc3c([nH]1)CCCC3)C(=O)N2
residual activity (CDK2 CCNA2 (human)): 90.6% | residual activity (FRK (human)): 86% | residual activity (PHKG2 (human)): 78.8% | residual activity [1]: 108% | residual activity (EPHA7 (human)): 91.1% | residual activity (BMX (human)): 103% | residual activity (AURKC (human)): 33.8% | residual activity (PRKACA (human)): 106% | residual activity (PAK1 (human)): 96.1% | residual activity (NTRK2 (human)): 15.6% | residual activity (RIPK2 (human)): 88.9% | residual activity (MATK (human)): 104% | residual activity (PBK (human)): 99.7% | residual activity (CAMK4 (human)): 96.6% | residual activity (PRKCB2 (human)): 92% | residual activity (PRKG1 (human)): 82.5% and 88.6% | residual activity (FGFR2 (human)): 49.3% | residual activity (PRKCA (human)): 94.9% | residual activity (SRMS (human)): 104% | residual activity (PASK (human)): 95.6% | residual activity (DAPK1 (human)): 102% | residual activity (PRKD2 (human)): 102% | residual activity (SRPK2 (human)): 50.3% | residual activity (CSNK2A2 (human)): 92.1% | residual activity (HIPK2 (human)): 98.2% | residual activity (SGK3 (human)): 98.1% | residual activity (CAMK2B (human)): 70% | residual activity (MKNK2 (human)): 84.1% | residual activity (NEK11 (human)): 82.5% | residual activity (CSF1R (human)): 37.2% | residual activity (MST4 (human)): 45.6% | residual activity (EPHB3 (human)): 105% | residual activity (ABL2 (human)): 56.8% | residual activity (PLK1 (human)): 101% | residual activity (ITK (human)): 61.2% | residual activity (MAP4K2 (human)): 20.8% | residual activity (INSRR (human)): 93.3% | residual activity (YES1 (human)): 13.5% | residual activity (CDK9 CCNT1 (human)): 95.9% | residual activity (RPS6KA1 KD1 KD2 (human)): 68.1%
